Test results from US6537545B1, “Use of corneal hardening agents in enzymeorthokeratology” (ISTA Pharmaceuticals, Inc., priority 1998, dated 2003).

Assays:
[1] = system: Dutch Belted rabbit corneas; assay: Safety of glyceraldehyde in rabbits, slit lamp examination scores (Example 1); type: in vivo; details: 500 IU hyaluronidase day 1, 3% glyceraldehyde 20 μL intrastromal day 8, then 1 drop three times a day, 50 days, control BSS
Text: In this Example, the safety of treating Dutch Belted rabbit corneas with glyceraldehyde following administration of the corneal softening enzyme hyaluronidase was investigated. This study involved the use of five (5) pigmented Dutch Belted rabbits, two (2) in the control group and three (3) in the glyceraldehyde treated group.
All rabbits received a thorough slit lamp examination on the first day of the study to establish the baseline using the following technique. A Nikon FS-2 Slit Lamp was used for the examinations of the test animals. For each animal examined, the eyes were dilated by instilling one drop of 1.0% tropicamide (Bausch and Lomb, Tampa, Fla.) and 2.5% phenylephrine (Bausch and Lomb, Tampa, Fla.). The animal was then positioned in front of a slit lamp. The corneas of each animal were examined for edema and the surface area involved with edema was estimated. The anterior chambers of the animals were closely examined for chamber depth, aqueous cell and flare, and fibrin. The iris of each animal was examined for atrophy, symmetry, or synechiae. The lens was examined and cellular debris, capsule, or lens protein abnormalities were noted if present. The vitreous humor of each animal were then examined for the presence of cells or other abnormnalities. […]

[2] = system: eyes of myopic human subjects; assay: Mild myopia study, group I: 50 IU hyaluronidase, corrective lenses, 3% glyceraldehyde (Example 9); type: in vivo
Text: Given the favorable results obtained in Example 8, an additional study was undertaken to test the safety and efficacy of the method of the present invention using a larger group of subjects. In this study, a group of subjects were selected and randomly separated into three test groups to test the safety and efficacy of using hyaluronidase and a glyceraldehyde solution for treating subjects with sub-optimal visual acuity. Groups one and two received an intrastromal injection of hyaluronidase (50 and 500 IU, respectively), while group three received a control injection of saline.
Following a two week incubation period after the injection, the three groups were fitted with corrective lenses to optimize the visual acuity of the subjects. The corrective lenses were left in place for a period of time sufficient to alter the shape of the subjects' eyes so as to achieve an optimal visual acuity. This period of time was generally 2 days in length. Once an acceptable visual acuity was achieved, the subjects in the three groups received a topical 3% glyceraldehyde solution in the form of ophthalmic drops four times per day while wearing the corrective lenses. The glyceraldehyde treatment was generally administered for one month. Lens wear occurred from 8 to 12 hours during the day.
At the end of the treatment period both the lens wear and the glyceraldehyde solution administration was terminated. The general health and visual acuity of the subjects was monitored from 3 to 5 months following treatment termination.
Before beginning the experimental protocol, test subjects were examined initially to establish a baseline from which the future results of the treatment were compared. For each subject a medical history was taken and a detailed examination of the eyes was also performed. The eyes of each subject were tested to determine: refraction cell count, intraocular pressure (IOP), pachymetry, corneal topography and corneal elasticity. A slit-lamp examination was also performed to establish the health of the eye. Also, the presence of any general or ocular discomfort of the subjects was noted.
Following the establishment of a baseline reading, group 1 subjects were administered a single intrastromal injection of 50 IU hyaluronidase prior to the orthokeratology treatment. Following 14 days of incubation, the subjects were fitted with corrective contact lenses for overnight wear. Subjects wore the corrective lenses night and day for a period of two (2) to seven (7) days or until visual 20/20 visual acuity was achieved. Subjects achieving an acceptable visual acuity (approximately 20/20) received an application of the topical 3% glyceraldehyde solution ophthalmic drops four times per day (8:00, 12:00, 16:00, and 20:00) for a period of 1 month in conjunction with daytime lens wear for stabilization. Lens wear lasted for 8 to 12 hours per day. The subjects were examined periodically during the glyceraldehyde treatment to monitor changes in the health of the treated eyes.
At the end of the treatment period, the stabilizing lens were removed and the administration of the 3% glyceraldehyde solution was terminated. Following termination of the treatment, the subjects were examined immediately after treatment was terminated, once a week for the first four weeks after termination, and then monthly to measure changes in the visual acuity of the treated eyes. The health of the eye was also monitored. Sequelae characterized by the appearance or worsening of serious ocular symptoms or slit-lamp findings observed during these examinations was assessed. The proportions of subjects with such findings were analyzed.

O=CC(O)CO (stereo not shown) [glyceraldehyde]
clinical observations (slit lamp scores), statistical analysis vs control group [1]: no differences between the groups
overall effect on correction of visual acuity ([2]; glyceraldehyde treatment with injection of 50 IU of hyaluronidase): effective in facilitating the correction
visual acuity at follow-up after end of treatment ([2]; subject 001, 5-month follow up, baseline 20/80): 20/40
visual acuity at follow-up after end of treatment ([2]; subject 002, 4-month follow-up, baseline 20/300): 20/125
visual acuity at follow-up after end of treatment ([2]; subject 007, 3-month follow-up, baseline 20/200): 20/50
visual acuity at follow-up after end of treatment ([2]; subject 009, 3-month follow-up, baseline 20/200): 20/63
visual acuity at follow-up ([2]; subject 010R, time not stated, baseline 20/80): 20/20
visual acuity at follow-up after end of treatment ([2]; subject 015, 3-month follow-up, baseline 20/80): 20/25
visual acuity at follow-up ([2]; subject 022R, 3-week followup, baseline 20/62): 20/80
visual acuity at follow-up ([2]; subject 024R, time not stated, baseline 20/100): 20/40
visual acuity at follow-up ([2]; subject 028, 2-month point, baseline 20/300): 20/125
visual acuity at follow-up ([2]; subject 029, 2-month point, baseline 20/200): 20/40
visual acuity at follow-up ([2]; subject 033, 2-month point, baseline 20/300): 20/125
